Measured values reported in patent US6372297B1, “Wood preservative oxathiazines” (Uniroyal Chemical Company, Inc., priority 1993, dated 2002).

Experiments:
[1] = test system: blue-stain fungi and molds; assay: Activity against blue-stain fungi and molds on a stick test on vermiculite (paint film); parameters: key to Surface score of wooden sticks treated with paint formulation, C. cladosporioides / Surface score of wooden sticks treated with paint formulation, P. purpurogenum / Surface score of wooden sticks treated with paint formulation, P. violacea / Surface score of wooden sticks treated with paint formulation, R rubra (y) / Surface score of wooden sticks treated with paint formulation, S. chartarum / Surface score of wooden sticks treated with paint formulation, A. versicolor / Surface score of wooden sticks treated with paint formulation, A. pullulans: 0: No growth; Trace of growth of up to 1% coverage of the test inoculated area; 2: Growth covering between 1 and 10% of the inoculated test area; Growth covering between 10 and 30% of the inoculated test area; 4: Growth covering between 30 and 70% of the inoculated test area; 5: Growth covering more than 70t of the inoculated test area; details: 12 weeks on vermiculite; for Surface score of wooden sticks treated with paint formulation, R rubra (y): R rubra (yeast)
Procedure: Beech sticks (73×18×2 mm) Fagus sylvatica were painted, allowed to dry, and sterilized by γ-radiation (1.2 mRad). […] The coated sticks prepared above were then dipped in a spore suspension of pure culture of each fungus. Seven sticks each were placed in autoclaved Petri dishes (200 mm in diameter, 30 mm in height) containing 300 ml of vermiculite and 120 ml of water, and incubated for 12 weeks. The surfaces of the sticks were then examined for the growth of fungus and were evaluated according to the following scoring system: 0: No growth 1: […] 2: […] 3: […] 4. […] 5. Growth covering more than 70t of the inoculated test area.

[2] = test system: mixed spore suspension of blue-stain fungus and molds; assay: Activity against blue-stain fungi and molds in a mold cabinet test (BS3900: Part G6)
Procedure: Using the methods described in BS3900: Part G6: 1989, British Standard Methods of test for paints, “Assessment of resistance to fungal growth”, representative compounds of this invention were tested for activity against blue-stain fungus and molds in a mold cabinet test. In brief, sticks of Scots pine (Pinus sylvestris) measuring 75×100×10 mm, were painted, allowed to dry, and sterilized by […] (1.2 mRad). […] The sticks were then with each solution. The inoculation consisted of dipping the sticks in a mixed spore suspension, then placing them in a mold chamber and incubating them for 12 weeks. The surfaces were evaluated according the following score system: 0: No growth 1: […] 2: […] 3: […] 4. […] 5. Growth covering more than 70% of the inoculated test area.

[3] = test system: mixed spore suspension: Aureobasidium pullulans, Aspergillus amstelodami, Ceratocystis pilifera, Cladosporium sp., Penicillium sp., Sclerophomas entoxylina …; assay: Control of molds and sapstain fungi in mini-board test; parameters: key to Surface score of treated mini-boards, 3 week incubation, 1500 ppm / Surface score of treated mini-boards, 3 week incubation, 2500 ppm: 0: Free of fungal growth; 1: Traces of fungal growth; 2: Little fungal growth; 3: Moderate fungal growth; 4: Vigorous to maximum growth (all surfaces covered with fungal growth)
Source text: Representative compounds of this invention to be tested, were suspended in an aqueous solution containing 7.5% GENAPOL X 080™ (Hoechst-Celanese Corporation), and 20% propylene glycol monomethyl ether, to prepare the test solutions. […]
Deep frozen boards (300×50×10 mm) of freshly felled sapwood of Pinus sylvestrus (mini-boards) were thawed at room temperature. One half of each mini-board was immersed in a test solution for 20 seconds. The mini-boards were then sprayed with mixed spore suspension containing the following fungi:
Sclerophomas entoxylina, and
and stored in incubation boxes at 25° C. and at 100% relative humidity, for three weeks. For each compound tested, each concentration of test solution was applied to five different mini-boards.
The efficacy of the test compounds was determined by comparing the fungal growth on both the treated and untreated parts of the mini-boards.
The degree of infection was scored according to the following scale:
1=Traces of fungal growth
4=Vigorous to maximum growth (all surfaces covered with fungal growth)

[4] = test system: molds and blue-stain fungi; assay: In vitro activity against molds and blue-stain fungi, poison plate assay (MIC); type: cell-based; details: malt extract agar, complete inhibition
Procedure: The effect of the representative compounds on the growth of certain molds and blue-strain fungi were determined using a poison plate assay according to the following procedure: The solutions of the representative compounds prepared above were further diluted with sterile water to desired concentrations and poured into Petri dishes. Malt extract agar medium was then added aseptically to the Petri dishes and to Petri dishes containing no compound (controls). The Petri dishes were then shaken to provide a uniform distribution of the agar medium. Each Petri dish containing compound and each control Petri dish, was then inoculated with a fungus and incubated for a period of time sufficient to permit complete growth of the fungus in the respective control Petri dish. The Petri dishes containing compound were then examined to determine the amount of inhibition of fungi for each concentration of compound tested.

[5] = test system: blue-stain fungi and molds; assay: Activity against blue-stain fungi and molds in a stick test (threshold concentrations); details: beech sticks, 22° C., 90% relative humidity
Procedure: Representative compounds of this invention were dissolved in 50% ethanol. Each compound was then diluted serially using 50% ethanol. […] After three (3) hours, the solutions containing the test compounds were poured off and the treated sticks were allowed to dry in a sterile laminar air flow. Each treated stick was then placed in a Petri dish which had been previously seeded with inoculum. Two drops of a test fungal or spore suspension were pipetted onto the upper surface of each treated stick. The Petri dishes containing the treated sticks were incubated at 22° C. and 90% relative humidity. The treated sticks were evaluated after there was sufficient growth of fungus on control sticks (i.e., untreated sticks) incubated in the same manner. The following score system was used: 0: Stick free of fungal/mold growth 1: Traces of fungal growth on the stick 2: Slight growth (5 to 25% of the surface covered with fungal growth) 3: Moderate growth (25 to 50% covered with fungal growth) 4. Vigorous to maximum fungal growth (more than 50% growth) […]

For `[O-][S+]1CCON=C1c1ccc(Br)s1` (stereo not drawn) [Compound 36], the “Surface score of wooden sticks treated with paint formulation, A. pullulans” value ([1]; 0.15% a.i. in paint) was 0, the “Surface score of wooden sticks treated with paint formulation, A. pullulans” value ([1]; 0.3% a.i. in paint) was 0 and the “Surface score of wooden sticks treated with paint formulation, A. versicolor” value ([1]; 0.15% a.i. in paint) was 0. The “Surface score of wooden sticks treated with paint formulation, A. versicolor” value ([1]; 0.3% a.i. in paint) was 0, the “Surface score of wooden sticks treated with paint formulation, C. cladosporioides” value ([1]; 0.15% a.i. in paint) was 0 and the “Surface score of wooden sticks treated with paint formulation, C. cladosporioides” value ([1]; 0.3% a.i. in paint) was 0. For the same compound, the “Surface score of wooden sticks treated with paint formulation, P. purpurogenum” value ([1]; 0.15% a.i. in paint) was 1 (Trace of growth of up to 1% coverage of the test inoculated area), the “Surface score of wooden sticks treated with paint formulation, P. purpurogenum” value ([1]; 0.3% a.i. in paint) was 1 (Trace of growth of up to 1% coverage of the test inoculated area) and the “Surface score of wooden sticks treated with paint formulation, P. violacea” value ([1]; 0.15% a.i. in paint) was 3 (Growth covering between 10 and 30% of the inoculated test area). For the same compound, the “Surface score of wooden sticks treated with paint formulation, P. violacea” value ([1]; 0.3% a.i. in paint) was 1 (Trace of growth of up to 1% coverage of the test inoculated area), the “Surface score of wooden sticks treated with paint formulation, R rubra (y)” value ([1]; 0.15% a.i. in paint) was 0 and the “Surface score of wooden sticks treated with paint formulation, R rubra (y)” value ([1]; 0.3% a.i. in paint) was 0. For the same compound, the “Surface score of wooden sticks treated with paint formulation, S. chartarum” value ([1]; 0.15% a.i. in paint) was 0, the “Surface score of wooden sticks treated with paint formulation, S. chartarum” value ([1]; 0.3% a.i. in paint) was 0 and the “Surface score of wooden sticks treated with paint formulation, U. atrum” value ([1]; 0.15% a.i. in paint) was 3 (Growth covering between 10 and 30% of the inoculated test area). The “Surface score of wooden sticks treated with paint formulation, U. atrum” value ([1]; 0.3% a.i. in paint) was 1 (Trace of growth of up to 1% coverage of the test inoculated area), the “Surface score in a paint formulation in a mold cabinet test, 6 weeks” value ([2]; 0.15% in water-based paint) was 2.5 and the “Surface score in a paint formulation in a mold cabinet test, 12 weeks” value ([2]; 0.15% in water-based paint) was 4.5. For the same compound, the “Surface score in a paint formulation in a mold cabinet test, 6 weeks” value ([2]; 0.3% in water-based paint) was 2.5, the “Surface score in a paint formulation in a mold cabinet test, 12 weeks” value ([2]; 0.3% in water-based paint) was 4.0 and the “Surface score of treated mini-boards, 3 week incubation, 1500 ppm” value (“Surface score … 3 week incubation, 1500 ppm” for short) [3] was 0.2. The “Surface score of treated mini-boards, 6 week incubation, 1500 ppm” value (from here on “Surface score … 6 week incubation, 1500 ppm”) [3] was 2.6, the “Surface score of treated mini-boards, 3 week incubation, 2500 ppm” value (from here on “Surface score … 3 week incubation, 2500 ppm”) [3] was 0 and the “Surface score of treated mini-boards, 6 week incubation, 2500 ppm” value (from here on “Surface score … 6 week incubation, 2500 ppm”) [3] was 1.4.
For `Cc1ccc(C2=NOCC[S+]2[O-])s1` (stereo not drawn) [Compound 48], the “Surface score … 3 week incubation, 1500 ppm” value [3] was 0, the “Surface score … 6 week incubation, 1500 ppm” value [3] was 1.4 and the “Surface score … 3 week incubation, 2500 ppm” value [3] was 0. For the same compound, the “Surface score … 6 week incubation, 2500 ppm” value [3] was 0.8.
In the case of `Cc1ccc(C2=NOCCS2(=O)=O)s1` [Compound 49], the “Surface score … 3 week incubation, 1500 ppm” value [3] is reported as 0, the “Surface score … 6 week incubation, 1500 ppm” value [3] is reported as 1.8 and the “Surface score … 3 week incubation, 2500 ppm” value [3] is reported as 0. The “Surface score … 6 week incubation, 2500 ppm” value [3] was 1.2.
In the case of `O=S1(=O)CCON=C1c1ccsc1` [Compound 78], the “Surface score … 3 week incubation, 1500 ppm” value [3] is reported as 0.2, the “Surface score … 6 week incubation, 1500 ppm” value [3] is reported as 1.2 and the “Surface score … 3 week incubation, 2500 ppm” value [3] is reported as 0.2. The “Surface score … 6 week incubation, 2500 ppm” value [3] was 1.8.
With `[O-][S+]1CCON=C1c1ccsc1` (stereo not drawn) [Compound 79] the “Surface score … 3 week incubation, 1500 ppm” value [3] was 1.0, the “Surface score … 6 week incubation, 1500 ppm” value [3] was 3.0 and the “Surface score … 3 week incubation, 2500 ppm” value [3] was 0. The “Surface score … 6 week incubation, 2500 ppm” value [3] was 1.8.
In the case of `[O-][S+]1CCON=C1c1cc2ccccc2s1` (stereo not drawn) [Compound 87], the “MIC (ppm) against A. amstelodami” value ([4]; A. amstelodami) is reported as 5 ppm, the “MIC (ppm) against A. niger” value ([4]; A. niger) is reported as 2.5 ppm and the “MIC (ppm) against A. pullulans” value ([4]; A. pullulans) is reported as 10 ppm. The “MIC (ppm) against A. versicolor” value ([4]; A. versicolor) was 2.5 ppm, the “MIC (ppm) against C. cladosporioides” value ([4]; C. cladosporioides) was 25 ppm and the “MIC (ppm) against C. pilifera” value ([4]; C. pilifera) was 2.5 ppm. For the same compound, the “MIC (ppm) against F. solani” value ([4]; F. solani) was 10 ppm, the “MIC (ppm) against G. candidum” value ([4]; G. candidum) was 25 ppm and the “MIC (ppm) against P. purpurogenum” value ([4]; P. purpurogenum) was 2.5 ppm. The “MIC (ppm) against P. variotii” value ([4]; P. variotii) was 10 ppm, the “MIC (ppm) against P. violacea” value ([4]; P. violacea) was 10 ppm and the “MIC (ppm) against S. atra” value ([4]; S. atra) was 2.5 ppm. For the same compound, the “MIC (ppm) against S. entoxylina” value ([4]; S. entoxylina) was 5 ppm, the “MIC (ppm) against T. viride” value ([4]; T. viride) was 10 ppm and the “MIC (ppm) against U. atrum” value ([4]; U. atrum) was 10 ppm. For the same compound, the “Threshold concentration (ppm), A. niger, score 0” value ([5]; A. niger, minimum concentration to obtain score 0) was 1000 ppm, the “Threshold concentration (ppm), A. niger, score 1-2” value ([5]; A. niger, minimum concentration to obtain score 1-2) was 250-500 ppm and the “Threshold concentration (ppm), Aureobasidium, score 0” value ([5]; Aureobasidium, minimum concentration to obtain score 0) was 1000 ppm. The “Threshold concentration (ppm), Aureobasidium, score 1-2” value ([5]; Aureobasidium, minimum concentration to obtain score 1-2) was 100-250 ppm, the “Threshold concentration (ppm), Sclerophoma, score 0” value ([5]; Sclerophoma, minimum concentration to obtain score 0) was 100 ppm and the “Threshold concentration (ppm), Sclerophoma, score 1-2” value ([5]; Sclerophoma, minimum concentration to obtain score 1-2) was 50-100 ppm. The “Threshold concentration (ppm), Trichoderma, score 0” value ([5]; Trichoderma, minimum concentration to obtain score 0) was 5000 ppm and the “Threshold concentration (ppm), Trichoderma, score 1-2” value ([5]; Trichoderma, minimum concentration to obtain score 1-2) was 1000-2500 ppm.
